Results reported in US20180326055A1, “NANOSTRUCTURE” (RIKEN, priority 2017, published 2018).

System: HeLa cell
Assay: Delivery of PI by nanocapsule into cells (fluorescent microscope)
Assay type: cell-based
Settings: incubated 1 hour
Protocol: PI-encapsulating nanocapsule was prepared in the same manner as described in Example 2. The PI-encapsulating nanocapsule dispersion was incubated with HeLa cell for 1 hour and washed with a buffer solution several times to remove the nanocapsule and free PI outside completely. The location of PI was evaluated by fluorescent microscope observation. PI alone incubated with HeLa cell for 1 hour was used as a negative control.

CC[N+](C)(CC)CCC[n+]1c(-c2ccccc2)c2cc(N)ccc2c2ccc(N)cc21.[I-].[I-] [PI, propidium iodide]
uptake of PI by cells: not taken up by cells
